In patent US10610517B2, “Compositions and methods for treating neoplastic diseases” (Celgene International II Sàrl, priority 2004, dated 2020):

Assays:
Bax = test: Immunoblot of Bax in mitochondrial protein extracts; format: cell-based, human; settings: MM.1S cells; FIG. 12E
Experimental: Immunoblot analysis was performed using antibodies to cytochrome-c, Smac, Caspase-8, -9, or -3 (Cell Signaling, Beverly, Mass.), tubulin (Sigma, St. Louis, Mo.), PARP, Hsp60, or Bax (BD Bioscience Pharmingen, San Diego, Calif.). Blots were developed by enhanced chemiluminesence (ECL; Amersham, Arlington Heights, Ill.).
Previous studies have established that Bax induces mitochondrial apoptotic pathway. See Wei, M. C., Zong, W. X., Cheng, E. H., Lindsten, T., Panoutsakopoulou, V., Ross, A. J., Roth, K. A., MacGregor, G. R., Thompson, C. B. & Korsmeyer, S. J. (2001) Science 292, 727-30 and Lei, K., Nimnual, A., Zong, W. X., Kennedy, N. J., Flavell, R. A., Thompson, C. […] Thus, whether MM cell apoptosis induced by the compound of formula (II) (X=Cl) correlates with alterations in Bax was evaluated. […] Blots are representatives of three independent experiments.

[1] = tested on: normal CCD-27sk fibroblasts; test: cells; format: cell-based, human; settings: Homo sapiens
Excerpt: (§1) Whether the compound of formula (II) or Bortezomib alters proteasome activity in normal lymphocytes and skin fibroblasts was also examined.

MM.1S cells [2] = test: cells
Excerpt: MM.1S cells were also transiently transfected using Cell line Nucleofecto kit V, according to the manufacturer's instructions (Amaxa Biosystems, Germany), with vector alone, DN-caspase-8, DN-caspase-9, or DN-FADD and cotransfected with vector containing green fluorescence protein (GFP) alone.
It was next determined whether inhibition of an upstream signaling pathway that leads to caspase-8 activation affects the response to the compound of formula (II) (X=Cl) or Bortezomib. The Fas-associated death domain (FADD) protein is an important part of the deathinducing signaling complexes (DISCs) that assemble upon engagement of TNF receptor family members, such as Fas, resulting in proteolytic processing and autoactivation of pro-caspase-8. Since both the compound of formula (II) (X=Cl) and Bortezomib trigger caspase-8 activation, the role of FADD during this event in MM cells was evaluated using DN-FADD.

[3] = tested on: Lymphocytes from five healthy donors; test: MTT cytotoxicity on normal lymphocytes; settings: human, 72 h
Excerpt: Bortezomib therapy is associated with toxicity in patients. […] Results are the mean±SD of three independent experiments.

[4] = tested on: Bcl2-transfected MM.1S cells; test: MTT viability of Bcl2-transfected MM.1S cells
Experimental: Bcl2 confers resistance to conventional therapies in cancer cells, including MM. […] Bcl2 can modestly attenuate Bortezomib-induced apoptosis. Thus, whether ectopic expression of Bcl2 in MM.1S cells affects responsiveness to the compound of formula (II) (X=Cl) was evaluated. MM.1S cells were stably transfected with Bcl2 construct and analyzed for alterations in cell viability using an MTT assay. […] Results are mean±SD of three independent experiments.
During apoptosis Bax neutralizes the antiapoptotic function of Bcl-2, thereby facilitating the cyto-c release and caspase-9 activation. Bcl-2 also confers drug resistance in cancer cells, including MM, and provides partial protection against Bortezomib-induced killing. Therefore, whether ectopic expression of Bcl-2 in MM.1S cells affects the ability of the compound of formula (II) or Bortezomib to trigger cytotoxicity and postmitochondrial apoptotic signaling in MM cells was evaluated.

[5] = tested on: Mouse embryonic fibroblast (MEFs); test: MTT viability of MEFs with wild-type or knock-out Bax; format: cell-based; settings: 48 h; FIG. 12F
Excerpt: Results are mean±SD of three independent experiments (P<0.05).

[6] = target: proteasome β-5, β-1, β-2 subunits in MM.1S cells (Homo sapiens, UniProt P28072+P28074+Q99436); format: cell-based; settings: even higher doses; data not shown
Experimental: In vivo determination of proteasome activity was conducted using a competition experiment with Dansyl-Ahx3L3VS, which covalently modifies all active proteasome subunits. This inhibitor contains a dansyl sulfonamide hexanoyl hapten that can be visualized by immunoblotting using antibodies against the dansyl moiety. […] Cells were lysed by incubating them for 30 mins in NP-40 lysis buffer (50 mM Tris-HCl pH 8.0, 150 mM NaCl, 1% NP-40), followed by 5 min. centrifugation to remove membrane fractions, nuclei, and cell debris. […] Blots were developed by enhanced chemiluminescence (Western Lightning, Perkin-Elmer).

proteasome = proteasome (Homo sapiens, UniProt P28074); settings: Goldberg & Rock 2002; Adams 2004; cited from earlier work
[7] = tested on: Chymotrypsin-like proteasome activity; format: cell-based, human; settings: data not shown
Excerpt: as §1

RPMI 8226 MM cells = format: in vivo, beige-nude-xid (BNX) mice; settings: i.v. twice weekly (compound 0.15 mg/kg; Bortezomib 1.0 mg/kg)
MM.1S cells [8] = test: MTT viability of MM.1S cells with or without rhIL-6 or rhIGF-I; format: cell-based, human; settings: human, 24 h
Excerpt: Adhesion of MM cells to BMSCs induces IL-6 and IGF-I secretion from BMSCs, which not only regulates the growth of MM cells, but also protects against chemotherapy. See Hardin, J., MacLeod, S., Grigorieva, I., Chang, R., Barlogie, B., Xiao, H. & Epstein, J. (1994) Blood 84, 3063-70 and Chauhan, D., Kharbanda, S., Ogata, A., Urashima, M., Teoh, G., Robertson, M., Kufe, D. W. & Anderson, K. C. […] Thus, whether rhIL-6 or rhIGF-I inhibits apoptosis in MM cells induced by the compound of Formula (II) (X=Cl) was evaluated. […] At 24 h cells were harvested and viability analyzed by MTT assays. […] Median viability was 51±2.1% after treatment with Dex and 92±5.5% for Dex+rhIL-6 (P=0.05, as determined by one-sided Wilcoxon rank-sum test). Results are mean±SD of three independent experiments. […] In contrast and as in other studies, both IL-6 and IGF-I block Dex-induced decreased MM.1S cell viability. See Chauhan, D., Hideshima, T. & Anderson, K. C. (2003) Int J Hematol 78, 114-20 and Mitsiades, C. S., Mitsiades, N., Poulaki, V., Schlossman, R., Akiyama, M., Chauhan, D., Hideshima, T., Treon, S. P., Munshi, N. C., Richardson, P. G. & Anderson, K. C.

Sequence of proteasome (P28074 60-263): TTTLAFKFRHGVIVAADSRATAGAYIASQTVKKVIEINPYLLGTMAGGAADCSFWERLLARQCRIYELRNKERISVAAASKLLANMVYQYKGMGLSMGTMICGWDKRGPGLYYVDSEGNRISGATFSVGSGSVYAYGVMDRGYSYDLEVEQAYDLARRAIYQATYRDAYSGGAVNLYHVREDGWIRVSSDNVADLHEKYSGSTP

Structure (SMILES)	Bax levels in mitochondria (Bax)	IC50 [1]	increase in survival of DN-FADD-transfected compared to vector-transfected cells (MM.1S cells [2]; FIG. 12D)	IC50 (MM.1S cells [2]; Homo sapiens, MM1.S)	effect of caspase-8 blockade on triggered cell death (MM.1S cells [2]; IETD-fmk, FIG. 12A)	effect of caspase-9 inhibition on decreased viability (MM.1S cells [2]; LEHD-FMK, FIG. 12A)	survival of DN-caspase-8-transfected compared to DN-caspase-9-transfected cells (MM.1S cells [2]; treated at IC50, FIG. 12B)	effect of caspase-3 inhibition on induced apoptosis (MM.1S cells [2]; z-VAD-fmk, FIG. 12A)	decrease in viability of normal lymphocytes [3]	increased survival of Bcl-2 transfectants ([4]; Bcl-2- versus vector-transfected, FIG. 14A)	decrease of caspase-9 cleavage in Bcl-2-transfected cells by densitometry ([4]; versus vector-transfected cells, FIG. 14B)	cell viability in Bax (WT) and Bax (knock-out) MEFs [5]	inhibition of the β-2 subunits [6]	proteasome activities inhibited (proteasome)	inhibition of Chymotrypsin-like proteasome activity ([7]; 20 nM)	proteasome activity in CCD-27sk fibroblasts ([7]; treatment at the IC50)	tumor progression (RPMI 8226 MM cells; p<0.01)	survival (RPMI 8226 MM cells; p=0.0137)	median cell viability (MM.1S cells [8])
CC(C)C[C@H](NC(=O)[C@H](Cc1ccccc1)NC(=O)c1cnccn1)B(O)O [Bortezomib, reference compound]	significant accumulation of Bax in mitochondria	15 nM	16%	5 nM	equally blocked	equally blocked	increased the survival to a similar extent	markedly abrogates	50%	21%	3 fold	deletion of Bax confers significant resistance	does not inhibit the β-2 subunits	inhibit only chymotrypsin-like proteasome activity	59±11%	inhibited proteasome activity	significantly reduced the tumor progression	prolonged survival	–
C[C@@H]1C[C@H]2[C@@H]3CCC4=CC(=O)C=C[C@]4(C)[C@@]3(F)[C@@H](O)C[C@]2(C)[C@@]1(O)C(=O)CO [Dex, reference compound]	–	–	–	–	–	–	–	–	–	–	–	–	–	–	–	–	–	–	51±2.1%
